From patent publication US20060154243A1 (priority 2003, published 2006) come the findings set out here.

This assay concerns rabbit serum obtained by immunizing with SARS-CoV strain Frankfurt 1. The assay is classed as binding.
QLSLSMARRNLDSLE: the “Rabbit serum linear peptides” value is 0.1 and the “Rabbit serum looped peptides” value was 0.3.
For IVVQMTKLATTEELP, the “Rabbit serum linear peptides” value came to 0.2 and the “Rabbit serum looped peptides” value came out at 0.4.
In the case of MKLLIVLTCISLCSC, the “Rabbit serum linear peptides” value is listed as 0.1 and the “Rabbit serum looped peptides” value came to 0.5.
The matching figures for LVDPQIQLTITRMED: 0.1 and 0.2.
As for SLCSCICTVVQRCAS, the “Rabbit serum linear peptides” value turned out to be 0.1 and the “Rabbit serum looped peptides” value is 0.2.
Consider PIVVQMTKLATTEEL, for which the “Rabbit serum linear peptides” value came out at 0.1 and the “Rabbit serum looped peptides” value was 0.6.
The matching figures for VLTCISLCSCICTVV: 0.0 and 0.4.
Taken in the same sequence, the figures for ILRLGSQLSLSMARR were 0.1 and 0.7.
The matching figures for EDAMGQGQNSADPKV: 0.6 and 0.5.
Turning to SQLSLSMARRNLDSL, the “Rabbit serum linear peptides” value worked out at 0.1 and the “Rabbit serum looped peptides” value was 0.4.
Turning to LHLVDPQIQLTITRM, the “Rabbit serum linear peptides” value was 0.5 and the “Rabbit serum looped peptides” value stood at 0.6.
Take HLVDPQIQLTITRME: the “Rabbit serum linear peptides” value is given as 0.1 and the “Rabbit serum looped peptides” value amounted to 0.3.
The matching figures for NSADPKVYPIILRLG: 0.1 and 0.4.
SLEARAFQSTPIVVQ: the “Rabbit serum linear peptides” value stood at 0.1 and the “Rabbit serum looped peptides” value is given as 0.6.
In the case of IVLTCISLCSCICTV, the “Rabbit serum linear peptides” value worked out at 0.1 and the “Rabbit serum looped peptides” value is 0.6.
As to IILRLGSQLSLSMAR, the “Rabbit serum linear peptides” value worked out at 0.6 and the “Rabbit serum looped peptides” value is reported as 0.5.
In the case of KLLIVLTCISLCSCI, the “Rabbit serum linear peptides” value is on record as 0.0 and the “Rabbit serum looped peptides” value is listed as 0.5.
For PKVYPIILRLGSQLS, the “Rabbit serum linear peptides” value is listed as 0.1 and the “Rabbit serum looped peptides” value is reported as 0.4.
In the case of VDPQIQLTITRMEDA, the “Rabbit serum linear peptides” value is listed as 0.0 and the “Rabbit serum looped peptides” value worked out at 0.4.
On to LLIVLTCISLCSCIC, for which the “Rabbit serum linear peptides” value was 0.1 and the “Rabbit serum looped peptides” value was determined as 0.5.
In the case of EARAFQSTPIVVQMT, the “Rabbit serum linear peptides” value is 0.1 and the “Rabbit serum looped peptides” value worked out at 0.4.
In the case of CISLCSCICTVVQRC, the “Rabbit serum linear peptides” value came to 0.0 and the “Rabbit serum looped peptides” value turned out to be 0.5.
For the sequence SLSMARRNLDSLEAR, the “Rabbit serum linear peptides” value was found to be 0.1 and the “Rabbit serum looped peptides” value is 0.4.
Regarding PIILRLGSQLSLSMA, the “Rabbit serum linear peptides” value is listed as 0.1 and the “Rabbit serum looped peptides” value is 0.5.
Taken in the same sequence, the figures for MARRNLDSLEARAFQ were 0.1 and 0.5.
Turning to AFQSTPIVVQMTKLA, the “Rabbit serum linear peptides” value was 0.1 and the “Rabbit serum looped peptides” value is given as 0.5.
On to GSQLSLSMARRNLDS, for which the “Rabbit serum linear peptides” value came to 0.1 and the “Rabbit serum looped peptides” value stood at 0.7.
On to GQGQNSADPKVYPII, for which the “Rabbit serum linear peptides” value worked out at 0.4 and the “Rabbit serum looped peptides” value is on record as 0.5.
On to YPIILRLGSQLSLSM, for which the “Rabbit serum linear peptides” value is 0.2 and the “Rabbit serum looped peptides” value worked out at 0.4.
On to ASNKPHVLEDPCKVQ, for which the “Rabbit serum linear peptides” value worked out at 0.8 and the “Rabbit serum looped peptides” value is 0.9.
Take QIQLTITRMEDAMGQ: the “Rabbit serum linear peptides” value is listed as 0.1 and the “Rabbit serum looped peptides” value turned out to be 0.2.
With LDSLEARAFQSTPIV, the “Rabbit serum linear peptides” value is 0.1 and the “Rabbit serum looped peptides” value was 0.5.
For STPIVVQMTKLATTE, the “Rabbit serum linear peptides” value was found to be 0.1 and the “Rabbit serum looped peptides” value is given as 0.5.
